Laboratory results: patent US20100009907A1, “Glucagon-Like Peptides and Uses Thereof” (AMYLIN PHARMACEUTICALS, INC., priority 2006, published 2010)
Where no end group is shown, it is not given here.

Key:
[1] = target: T1, rat thyroid carcinoma 6-23 clone 6 cells expressing endogenous GLP-1 receptors (Rattus norvegicus, UniProt P32301); assay: GLP-1 cAMP (6-23) cyclase assay; format: cell-based
T1 construct: rat thyroid carcinoma 6-23 clone 6 cells or RINm5F insulinoma cells expressing endogenous GLP-1 receptors; endogenous in cells; host or cells: rat thyroid carcinoma 6-23 clone 6 cells
T1 sequence (P32301 22-463): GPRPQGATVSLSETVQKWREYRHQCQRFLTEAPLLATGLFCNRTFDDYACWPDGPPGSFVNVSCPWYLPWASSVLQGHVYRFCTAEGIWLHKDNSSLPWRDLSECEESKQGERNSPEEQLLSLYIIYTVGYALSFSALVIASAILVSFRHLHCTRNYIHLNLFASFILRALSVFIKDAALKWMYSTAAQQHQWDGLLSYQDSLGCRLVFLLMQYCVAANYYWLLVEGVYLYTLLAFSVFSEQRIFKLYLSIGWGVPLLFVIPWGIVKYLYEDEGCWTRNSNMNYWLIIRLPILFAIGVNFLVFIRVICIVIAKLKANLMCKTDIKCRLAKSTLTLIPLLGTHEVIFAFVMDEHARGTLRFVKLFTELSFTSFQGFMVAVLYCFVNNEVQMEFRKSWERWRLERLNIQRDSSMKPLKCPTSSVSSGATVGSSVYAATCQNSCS
Description: (§1) Cells, and peptide or buffer solutions are combined in 384-well plates and incubated at room temperature in air for 30-minutes. cAMP content can then be measured according to recommendations in the Perkin-Elmer AlphaScreen™ kit instructions using the Perkin Elmer Fusion fluorimeter and data are analyzed using XLfit software (IDBS).

[2] = target: T2, GLP-1 receptor (RINm5F cell membranes) (Rattus norvegicus, UniProt P32301); assay: GLP-1 receptor binding assay (GLP RBA), [125I]GLP-1 displacement; conditions: [125I]GLP-1 tracer
T2 construct: RINm5F insulinoma cells expressing endogenous GLP-1 receptors; endogenous in cells; host or cells: RINm5F cell membranes
T2 sequence (P32301 22-463): T1 sequence (P32301 22-463)
Description: Reaction mixtures are filtered through glass filter pads presoaked with 0.3% PEI solution and rinsed with ice-cold phosphate buffered saline. Bound counts are determined using a scintillation counter. Binding affinities are calculated using GraphPad Prism software (GraphPad Software, Inc., San Diego, Calif.).

[3] = target: T3, RINm5f cells expressing endogenous GLP-1, calcitonin, and GIP receptors (Rattus norvegicus, UniProt P32301); assay: GLP/GIP/CT cAMP (RIN) assay; format: cell-based
T3 construct: RINm5f cells expressing endogenous GLP-1, calcitonin, and GIP receptors; endogenous in cells; host or cells: RINm5f cells
T3 sequence (P32301 22-463): T1 sequence (P32301 22-463)
Description: In addition, receptor binding can be measured using cells prepared from confluent cultures of RINm5f cells expressing endogenous GLP-1, calcitonin, and GIP receptors. Cells, and peptide or buffer solution are combined in 384-well plates. After a 30-minute incubation at room temperature in air, cAMP content is measured as recommended in the Perkin-Elmer AlphaScreen kit instructions.
as §1

[4] = Acute food intake assay (FI Assay); format: in vivo, NIH/Swiss mice; conditions: 1000 μg/kg intraperitoneal, relative to vehicle
Description: The effect of various test peptides on food intake is investigated using an acute food intake assay. This assay measures food consumption in lean, group-housed, overnight-fasted NIH/Swiss mice. Twelve mice are housed three to a cage. […] Decreased, as well as increased, food intake is measured. Testing of the various doses of the polypeptide generates ED50s.
Female NIH/Swiss mice (8-24 weeks old) are group housed with a 12:12 hour light:dark cycle with lights on at 0600. Water and a standard pelleted mouse chow diet are available ad libitum, except as noted. Animals are fasted starting at approximately 1500 hrs, 1 day prior to experiment. The morning of the experiment, animals are divided into experimental groups.
At time=0 min, all animals are given an intraperitoneal injection of vehicle or compound in an amount ranging from about 63 to 1000 μg/kg, and immediately given a pre-weighed amount (10-15 g) of the standard chow.

[5] = target: DPP-IV (Homo sapiens, UniProt P27487); assay: Stability by DPP IV assay; format: in vitro ADME; conditions: isolated DPP-IV enzyme, DPP-IV approximately 5 mUnit, 37° C., intact peptide remaining, read-out: DDP IV % Stable
Chain of DPP-IV (P27487 whole entry, species assumed): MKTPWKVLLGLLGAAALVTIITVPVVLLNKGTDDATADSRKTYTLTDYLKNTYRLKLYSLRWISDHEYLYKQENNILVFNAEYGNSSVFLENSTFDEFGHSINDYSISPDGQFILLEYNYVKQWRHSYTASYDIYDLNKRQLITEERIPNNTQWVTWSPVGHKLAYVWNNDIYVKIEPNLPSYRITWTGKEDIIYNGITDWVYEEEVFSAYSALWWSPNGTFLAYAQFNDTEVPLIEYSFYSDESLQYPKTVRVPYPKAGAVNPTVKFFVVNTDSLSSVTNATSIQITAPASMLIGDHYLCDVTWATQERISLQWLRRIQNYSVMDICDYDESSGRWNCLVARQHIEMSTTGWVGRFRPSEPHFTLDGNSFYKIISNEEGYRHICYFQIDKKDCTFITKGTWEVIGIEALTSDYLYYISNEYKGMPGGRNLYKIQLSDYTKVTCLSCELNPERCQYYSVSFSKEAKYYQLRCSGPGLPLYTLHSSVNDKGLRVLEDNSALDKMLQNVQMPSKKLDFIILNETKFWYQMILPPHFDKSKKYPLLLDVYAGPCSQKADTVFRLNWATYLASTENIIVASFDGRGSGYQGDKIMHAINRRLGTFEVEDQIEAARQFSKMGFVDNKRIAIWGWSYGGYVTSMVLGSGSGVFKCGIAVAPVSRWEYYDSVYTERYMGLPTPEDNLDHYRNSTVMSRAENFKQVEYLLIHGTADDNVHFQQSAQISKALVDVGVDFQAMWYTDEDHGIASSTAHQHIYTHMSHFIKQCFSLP
Description: DPP-IV, approximately 5 mUnit in 5 mM Tris-HCl was added to 625 μL HEPES buffer (25 mM) in a 1.5 mL polypropylene microcentrifuge tube with an O-ring seal to prevent evaporation. Peptide stock solution, 70 μL (300 μM in 50% acetonitrile) was carefully added to this and mixed by brief manual shaking. Next, the solution was aliquoted into six tubes (6×100 μl. One tube contained 200 μL Stop solution (50% acetonitrile and 1% formic acid) that was used to determine the initial concentration of peptide (t=0). All six aliquots were then incubated at 37° C. while mixing at 500 RPM in the Vortemp 56 incubator. The digestion was stopped at 10 min intervals by adding 200 μL stop solution. The tube was then placed back into the incubator for 50 min. The solution was centrifuged at 19000×g for 10 minutes at room temperature. The supernatant was removed and 200 μL supernatant was transferred to an autosampler vials for analysis.
The most intense ion of the intact peptide was monitored to determine the rates of degradation and to quantify the amount of intact peptide remaining in the solution.

| Compound | EC50 [1] [nM] | IC50 [2] [nM] | further results |
| --- | --- | --- | --- |
| EGTYTNDVTEYLEEKAAKEFIEWLIKGKPKKIRYS-NH2 (C-terminus assumed) [compound 37] | > 1000 | 22 | – |
| HAEGTYTNDVTEYLEEAAKEFIEWLIKGKPKKIRYS-NH2 (C-terminus assumed) [compound 30] | > 1000 | – | – |
| CC[C@H](C)[C@H](NC(=O)[C@H](CC(C)C)NC(=O)[C@H](Cc1c[nH]c2ccccc12)NC(=O)[C@H](CC(=O)O)NC(=O)[C@@H](NC(=O)[C@H](Cc1ccccc1)NC(=O)[C@H](CCC(=O)O)NC(=O)[C@H](CCCCN)NC(=O)[C@H](C)NC(=O)[C@H](C)NC(=O)[C@H](CCCCN)NC(=O)[C@H](CCC(=O)O)NC(=O)[C@H](CC(=O)O)NC(=O)[C@H](CC(C)C)NC(=O)[C@H](CCC(N)=O)NC(=O)[C@H](CCC(N)=O)NC(=O)[C@@H](NC(=O)[C@@H](NC(=O)[C@H](CC(=O)O)NC(=O)[C@H](CO)NC(=O)[C@@H](NC(=O)[C@H](Cc1ccccc1)NC(=O)[C@@H](NC(=O)CNC(=O)[C@H](CCC(=O)O)NC(=O)[C@H](C)NC(=O)[C@@H](N)Cc1c[nH]cn1)[C@@H](C)O)[C@@H](C)O)C(C)C)[C@@H](C)O)[C@@H](C)CC)C(=O)N[C@@H](CC(N)=O)C(=O)NCC(=O)NCC(=O)N1CCC[C@H]1C(=O)N[C@@H](CO)C(=O)N[C@@H](CCCCN)C(=O)N[C@@H](CCC(=O)O)C(=O)N[C@H](C(=O)N[C@H](C(=O)N[C@@H](CO)C(=O)O)[C@@H](C)CC)[C@@H](C)CC [compound 1] | – | 3 | GLP/GIP/CT cAMP(RIN) EC50 [3]: 1.9 nM; Food Intake % inhibition 30 min ([4]; 30 min): 56%; Food Intake % inhibition 60 min ([4]; 60 min): 69%; Food Intake % inhibition 120 min ([4]; 120 min): 73%; Food Intake % inhibition 180 min ([4]; 180 min): 72%; remaining at 50 min, 30 µM [5]: 99% |

Now from value to compound, other results behind:

| EC50 [1] [nM] | IC50 [2] [nM] | Compound | further results |
| --- | --- | --- | --- |
| 0.22 | – | CC[C@H](C)[C@H](NC(=O)[C@H](CC(C)C)NC(=O)[C@H](Cc1c[nH]c2ccccc12)NC(=O)[C@H](CCC(=O)O)NC(=O)[C@@H](NC(=O)[C@H](Cc1ccccc1)NC(=O)[C@H](CCC(=O)O)NC(=O)[C@H](CCCCN)NC(=O)[C@H](C)NC(=O)[C@H](C)NC(=O)[C@H](CCCCN)NC(=O)[C@H](CCC(=O)O)NC(=O)[C@H](CCC(=O)O)NC(=O)[C@H](CC(C)C)NC(=O)[C@H](Cc1ccc(O)cc1)NC(=O)[C@H](CCC(=O)O)NC(=O)[C@@H](NC(=O)[C@@H](NC(=O)[C@H](CC(=O)O)NC(=O)[C@H](CC(N)=O)NC(=O)[C@@H](NC(=O)[C@H](Cc1ccc(O)cc1)NC(=O)[C@@H](NC(=O)CNC(=O)[C@H](CCC(=O)O)NC(=O)[C@H](C)NC(=O)[C@@H](N)Cc1c[nH]cn1)[C@@H](C)O)[C@@H](C)O)C(C)C)[C@@H](C)O)[C@@H](C)CC)C(N)=O [compound 42] | – |
| > 1000 | – | HAEGTYTNDTEYLEEKAAKEFIEWLIKGKPKKIRYS-NH2 (C-terminus assumed) [compound 39] | – |
